Results as given in article PMC6979384, “Characterization of the plant homeodomain (PHD) reader family for their histone tail interactions” (Epigenetics & Chromatin, 2020).
“Also recorded” adds a separate entry of the source.

Key:
Test in all cases: Histone peptide microarray
Format in all cases: binding, human
CHD4 (PPCC) = details: for Array Heatmap signal (histone peptide microarray): GST-tagged CHD4 (PPCC = Dual PHD + Dual Chromodomain), sheet Array Heatmap, each array performed twice, total n = 4
Outline: (§1)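 GST-tagged PHD readers, 0.5 μM, probed on a microarray of 293 synthetic histone peptides carrying single or combinatorial PTMs (optimized Petell protocol). Signals are averaged over 4 replicates and expressed as relative binding.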

PHF2 = details: GST-tagged PHF2; sheet Array Heatmap; each array performed twice, total n = 4
Outline: as §1

PHF21A = details: GST-tagged PHF21A; sheet Array Heatmap; each array performed twice, total n = 4
Outline: as §1

MORC3 (CW) = details: GST-tagged MORC3 (CW = CW-type Zn-finger); sheet Array Heatmap; each array performed twice, total n = 4
Outline: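 Binding read as mean relative signal from 4 replicates; microarray held 293 synthetic histone peptides with single or combinatorial PTMs. Each GST-tagged PHD reader was applied at 0.5 μM using the optimized Petell protocol.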

PHF23 = details: GST-tagged PHF23; sheet Array Heatmap; each array performed twice, total n = 4
Outline: as §1

CHD5 (PPCC) = details: GST-tagged CHD5 (PPCC = Dual PHD + Dual Chromodomain); sheet Array Heatmap; each array performed twice, total n = 4
Outline: as §1

BPTF (PB) = details: GST-tagged BPTF (PB = PHD + Bromodomain); sheet Array Heatmap; each array performed twice, total n = 4
Outline: as §1

AIRE (PP) = details: GST-tagged AIRE (PP); sheet Array Heatmap; each array performed twice, total n = 4
Outline: as §1

DIDO1 = details: GST-tagged DIDO1; sheet Array Heatmap; each array performed twice, total n = 4
Outline: as §1

ING3 = details: GST-tagged ING3; sheet Array Heatmap; each array performed twice, total n = 4
Outline: as §1

KDM4C (TTP) = details: GST-tagged KDM4C (TTP = Tandem Tudor domain + PHD); sheet Array Heatmap; each array performed twice, total n = 4
Outline: as §1

ING1 = details: GST-tagged ING1; sheet Array Heatmap; each array performed twice, total n = 4
Outline: as §1

DPF2 (PPC2W2) = details: GST-tagged DPF2 (PPC2W2 = Dual PHD + C2W2-type Zn-finger); sheet Array Heatmap; each array performed twice, total n = 4
Outline: as §1

PHF13 = details: GST-tagged PHF13; sheet Array Heatmap; each array performed twice, total n = 4
Outline: as §1

MLL5 = details: for Array Heatmap signal (histone peptide microarray): GST-tagged MLL5, sheet Array Heatmap, each array performed twice, total n = 4
Outline: as §1

TAF3 = details: GST-tagged TAF3; sheet Array Heatmap; each array performed twice, total n = 4
Outline: as §1

ING4 = details: GST-tagged ING4; sheet Array Heatmap; each array performed twice, total n = 4
Outline: as §1

TRIM66 (PB) = details: GST-tagged TRIM66 (PB = PHD + Bromodomain); sheet Array Heatmap; each array performed twice, total n = 4
Outline: as §1

KDM5B (3) = details: for Array Heatmap signal (histone peptide microarray): GST-tagged KDM5B (3), sheet Array Heatmap, each array performed twice, total n = 4
Outline: as §1

KDM7A = details: GST-tagged KDM7A; sheet Array Heatmap; each array performed twice, total n = 4
Outline: as §1

RAG2 = details: GST-tagged RAG2; sheet Array Heatmap; each array performed twice, total n = 4
Outline: as §1

PHRF1 (RP) = details: for Array Heatmap signal (histone peptide microarray): GST-tagged PHRF1 (RP), sheet Array Heatmap, each array performed twice, total n = 4
Outline: as §1

PHF8 = details: GST-tagged PHF8; sheet Array Heatmap; each array performed twice, total n = 4
Outline: as §1

KDM5A (1) = details: GST-tagged KDM5A (1); sheet Array Heatmap; each array performed twice, total n = 4
Outline: as §1

KDM5A (3) = details: GST-tagged KDM5A (3); sheet Array Heatmap; each array performed twice, total n = 4
Outline: as §1

SP140L = details: GST-tagged SP140L; sheet Array Heatmap; each array performed twice, total n = 4
Outline: as §1

[1] = peptide microarray, reader 0.5 μM, n = 4

Row | Substance | Array Heatmap signal (histone peptide microarray) (CHD4 (PPCC)) | Array Heatmap signal (histone peptide microarray) (PHF2) | Array Heatmap signal (histone peptide microarray) (PHF21A) | Array Heatmap signal (histone peptide microarray) (MORC3 (CW)) | Array Heatmap signal (histone peptide microarray) (PHF23) | Array Heatmap signal (histone peptide microarray) (CHD5 (PPCC)) | Array Heatmap signal (histone peptide microarray) (BPTF (PB)) | Array Heatmap signal (histone peptide microarray) (AIRE (PP)) | Array Heatmap signal (histone peptide microarray) (DIDO1) | Array Heatmap signal (histone peptide microarray) (ING3) | Array Heatmap signal (histone peptide microarray) (KDM4C (TTP)) | Array Heatmap signal (histone peptide microarray) (ING1) | Array Heatmap signal (histone peptide microarray) (DPF2 (PPC2W2)) | Array Heatmap signal (histone peptide microarray) (PHF13) | Array Heatmap signal (histone peptide microarray) (MLL5) | Array Heatmap signal (histone peptide microarray) (TAF3) | Array Heatmap signal (histone peptide microarray) (ING4) | Array Heatmap signal (histone peptide microarray) (TRIM66 (PB)) | Array Heatmap signal (histone peptide microarray) (KDM5B (3)) | Array Heatmap signal (histone peptide microarray) (KDM7A) | also measured
1 | H3K4me2: H3 1-20 [Peptide H3K4me2] | 0.5852 | 0.5474 | 0.4967 | 0.6297 | 0.6135 | 0.6021 | 0.3788 | 0.5318 | 0.6829 | 0.5315 | 0.5984 | 0.601 | 0.7084 | 0.6844 | 0.5972 | 0.3841 | 0.5223 | 0.6781 | 0.6323 | 0.5271 | Array Heatmap signal (histone peptide microarray) (RAG2): 0.3888; Array Heatmap signal (histone peptide microarray) (PHRF1 (RP)): 0.5228; Array Heatmap signal (histone peptide microarray) (PHF8): 0.5074; Array Heatmap signal (histone peptide microarray) (KDM5A (1)): 0.5028; Array Heatmap signal (histone peptide microarray) (KDM5A (3)): 0.6851; Array Heatmap signal (histone peptide microarray) (SP140L): 0.3615
2 | H3K4me1: H3 1-20 [Peptide H3K4me1] | 0.5818 | 0.5242 | 0.4917 | 0.5834 | 0.579 | 0.5953 | 0.3638 | 0.5018 | 0.6429 | 0.5265 | 0.5341 | 0.551 | 0.7192 | 0.6545 | 0.5428 | 0.2998 | 0.4885 | 0.6245 | 0.6104 | 0.37 | Array Heatmap signal (histone peptide microarray) (RAG2): 0.3065; Array Heatmap signal (histone peptide microarray) (PHRF1 (RP)): 0.6701; Array Heatmap signal (histone peptide microarray) (PHF8): 0.3997; Array Heatmap signal (histone peptide microarray) (KDM5A (1)): 0.4924; Array Heatmap signal (histone peptide microarray) (KDM5A (3)): 0.6222; Array Heatmap signal (histone peptide microarray) (SP140L): 0.3684
3 | H3K4me3: H3 1-20 [Peptide H3K4me3] | 0.5281 | 0.8051 | 0.4238 | 0.5878 | 0.678 | 0.5167 | 0.3538 | 0.3854 | 0.7775 | 0.4876 | 0.4579 | 0.6386 | 0.5958 | 0.5859 | 0.668 | 0.3678 | 0.4513 | 0.622 | 0.4784 | 0.3234 | binding preference (MLL5; [1]): strong preference for H3K4me3 over the un-, mono-, or di-methylated H3K4 peptides; also recorded: specific reader for H3K4me3; binding preference (KDM5B (3); peptide microarray, reader 0.5 μM, n = 4, comparison between K9ac + K18ac peptides): showed such a preference on peptide microarrays; Array Heatmap signal (histone peptide microarray) (RAG2): 0.3757; Array Heatmap signal (histone peptide microarray) (PHRF1 (RP)): 0.4656; Array Heatmap signal (histone peptide microarray) (PHF8): 0.4526; Array Heatmap signal (histone peptide microarray) (KDM5A (1)): 0.4187; Array Heatmap signal (histone peptide microarray) (KDM5A (3)): 0.6781; Array Heatmap signal (histone peptide microarray) (SP140L): 0.3018
4 | H3 (1-20): unmodified H3 N-terminal peptide (1–20) | 0.5925 | 0.5688 | 0.4449 | 0.4267 | 0.5836 | 0.5462 | 0.3262 | 0.4007 | 0.7104 | 0.4575 | 0.431 | 0.542 | 0.6767 | 0.5761 | 0.5452 | 0.2842 | 0.425 | 0.7114 | 0.5464 | 0.3004 | relative binding (CHD4 (PPCC); [1]): no difference in binding; Array Heatmap signal (histone peptide microarray) (RAG2): 0.2786; Array Heatmap signal (histone peptide microarray) (PHRF1 (RP)): 0.67; binding preference (PHRF1 (RP); peptide microarray, reader 0.5 μM, n = 4, listed as H3K4me0): strong preference for H3K4me0; also recorded: specifically bound H3K4me0 over K4me; Array Heatmap signal (histone peptide microarray) (PHF8): 0.3331; Array Heatmap signal (histone peptide microarray) (KDM5A (1)): 0.4331; Array Heatmap signal (histone peptide microarray) (KDM5A (3)): 0.4935; Array Heatmap signal (histone peptide microarray) (SP140L): 0.461
